PubChem BioAssay AID192 (DTP/NCI, 2004)
Several values for one entry are separate records, joined by “and”; a condition that tells them apart may be missing. Equal values may be shown once. Toxic doses and inconclusive results are not listed. The calls were made as follows: active = survival T/C of 150% or more; inactive = T/C below 125% in these data.

Tested on: BDF1 mice, B16 melanoma ip, median survival T/C
Test: NCI In Vivo Anticancer Drug Screen. Data for tumor model B16 Melanoma (intraperitoneal) in B6D2F1 (BDF1) mice
Conditions: endpoint: median survival time, higher = longer survival
Procedure, shortened: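 Read-out: survival or tumor size, given as treated/control ratio. Controls received vehicle only; animals bore transplantable tumors.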

[1] = dose: 12.5 mg/kg/injection, schedule: Q01DX009 (ip), vehicle: other
[2] = dose: 25.0 mg/kg/injection, schedule: Q01DX009 (ip), vehicle: other
[3] = dose: 25.0 mg/kg/injection, schedule: Q01DX009 (ip), vehicle: Klucel (hydroxypropylcellulose) (HPC)
[4] = dose: 100.0 mg/kg/injection, schedule: Q01DX009 (ip), vehicle: saline
[5] = dose: 100.0 mg/kg/injection, schedule: Q04DX003 (ip), vehicle: Klucel (hydroxypropylcellulose) (HPC)
[6] = dose: 200.0 mg/kg/injection, schedule: Q04DX003 (ip), vehicle: Klucel (hydroxypropylcellulose) (HPC)
[7] = dose: 400.0 mg/kg/injection, schedule: Q04DX003 (ip), vehicle: Klucel (hydroxypropylcellulose) (HPC)
[8] = dose: 20.0 mg/kg/injection, schedule: Q01DX009 (ip), vehicle: Klucel (hydroxypropylcellulose) (HPC)

Measured: T/C

COc1cccc2c1C(=O)c1c(O)c3c(c(O)c1C2=O)C[C@@](O)(C(C)=O)C[C@@H]3OC1CC(N(Cc2ccccc2)Cc2ccccc2)C(O)C(C)O1 (some centres undefined)
inactive: dose: 12.5 mg/kg/injection, schedule: Q01DX001 (ip), vehicle: water 103 % of control | dose: 25.0 mg/kg/injection, schedule: Q01DX001 (ip), vehicle: water 113 % of control
active: dose: 100.0 mg/kg/injection, schedule: Q01DX001 (ip), vehicle: water 150 % of control

CCN(CC)CCCC(C)NC/C=C/CNC(C)CCCN(CC)CC (centres undefined)
inactive: dose: 6.25 mg/kg/injection, schedule: Q01DX009 (ip), vehicle: saline 105 % of control | dose: 12.5 mg/kg/injection, schedule: Q01DX009 (ip), vehicle: saline 103 % of control | dose: 25.0 mg/kg/injection, schedule: Q01DX009 (ip), vehicle: saline 102 % of control

NNC(=O)c1ccc(-c2ccccc2)cc1
inactive: [1] 93 % of control | [2] 95 % of control | dose: 50.0 mg/kg/injection, schedule: Q01DX009 (ip), vehicle: other 100 % of control | dose: 100.0 mg/kg/injection, schedule: Q01DX009 (ip), vehicle: other 100 % of control

CCCCCCCCCCNCCC(=O)O
inactive: dose: 0.58 mg/kg/injection, schedule: Q01DX009 (ip), vehicle: saline 98 % of control | dose: 1.1 mg/kg/injection, schedule: Q01DX009 (ip), vehicle: saline 96 % of control | dose: 2.3 mg/kg/injection, schedule: Q01DX009 (ip), vehicle: saline 95 % of control | dose: 37.5 mg/kg/injection, schedule: Q01DX009 (ip), vehicle: saline 102 % of control

CC(=O)c1ccc(F)cc1
inactive: [3] 100 % of control | dose: 50.0 mg/kg/injection, schedule: Q01DX009 (ip), vehicle: Klucel (hydroxypropylcellulose) (HPC) 106 % of control | dose: 100.0 mg/kg/injection, schedule: Q01DX009 (ip), vehicle: Klucel (hydroxypropylcellulose) (HPC) 103 % of control | dose: 200.0 mg/kg/injection, schedule: Q01DX009 (ip), vehicle: Klucel (hydroxypropylcellulose) (HPC) 106 % of control

N#CSc1ccc(NN)cc1
inactive: dose: 6.25 mg/kg/injection, schedule: Q01DX009 (ip), vehicle: other 96 % of control | [1] 114 % of control | [2] 99 % of control

NCC1OC(OC2C(CO)OC(OC3C(O)C(N)CC(N)C3OC3OC(CO)C(O)C(O)C3N)C2O)C(N)C(O)C1O (centres undefined)
inactive: dose: 50.0 mg/kg/injection, schedule: Q01DX009 (ip), vehicle: saline 114 % of control | [4] 108 % of control | dose: 200.0 mg/kg/injection, schedule: Q01DX009 (ip), vehicle: saline 111 % of control | dose: 400.0 mg/kg/injection, schedule: Q01DX009 (ip), vehicle: saline 112 % of control

CCNC(=O)Nc1ccc(C)cc1C
inactive: [5] 106 % of control | [6] 96 % of control | [7] 106 % of control

CC(C)(C)OC(=O)NCCCCC(NC(=O)OCc1ccccc1)C(=O)ON1C(=O)CCC1=O (centres undefined)
inactive: dose: 50.0 mg/kg/injection, schedule: Q01DX009 (ip), vehicle: saline with Tween-80 98 % of control | dose: 100.0 mg/kg/injection, schedule: Q01DX009 (ip), vehicle: saline with Tween-80 92 % of control | dose: 200.0 mg/kg/injection, schedule: Q01DX009 (ip), vehicle: saline with Tween-80 87 % of control

CC(=O)OC1C2CCC3C(C)(O)C4CC(O)C(C)(C)C4(O)C(O)CC13CC2(C)O (centres undefined)
inactive: dose: 2.0 micrograms/kg/injection, schedule: Q01DX009 (ip), vehicle: Klucel (hydroxypropylcellulose) (HPC) 101 % of control | dose: 4.0 micrograms/kg/injection, schedule: Q01DX009 (ip), vehicle: Klucel (hydroxypropylcellulose) (HPC) 92 % of control | dose: 8.0 micrograms/kg/injection, schedule: Q01DX009 (ip), vehicle: Klucel (hydroxypropylcellulose) (HPC) 99 % of control | dose: 16.0 micrograms/kg/injection, schedule: Q01DX009 (ip), vehicle: Klucel (hydroxypropylcellulose) (HPC) 98 % of control

COc1ccccc1NC(=O)Nc1ccc(Nc2ccccc2)cc1
inactive: dose: 100.0 mg/kg/injection, schedule: Q01DX009 (ip), vehicle: gum acacia 109 % of control | dose: 200.0 mg/kg/injection, schedule: Q01DX009 (ip), vehicle: gum acacia 97 % of control

CN(C)N=Nc1cccc(C(N)=O)c1
inactive: dose: 5.0 mg/kg/injection, schedule: Q01DX009 (ip), vehicle: Klucel (hydroxypropylcellulose) (HPC) 103 % of control and 121 % of control | dose: 10.0 mg/kg/injection, schedule: Q01DX009 (ip), vehicle: Klucel (hydroxypropylcellulose) (HPC) 106 % of control and 113 % of control | [8] 111 % of control and 123 % of control | dose: 80.0 mg/kg/injection, schedule: Q01DX009 (ip), vehicle: Klucel (hydroxypropylcellulose) (HPC) 101 % of control and 118 % of control | [4] 46 % of control | dose: 160.0 mg/kg/injection, schedule: Q01DX009 (ip), vehicle: Klucel (hydroxypropylcellulose) (HPC) 113 % of control

c1ccc(-c2csc3c4ccccc4c4ccccc4[n+]23)cc1
inactive: dose: 0.5 mg/kg/injection, schedule: Q01DX009 (ip), vehicle: saline with Tween-80 95 % of control | dose: 1.0 mg/kg/injection, schedule: Q01DX009 (ip), vehicle: saline with Tween-80 95 % of control | dose: 2.0 mg/kg/injection, schedule: Q01DX009 (ip), vehicle: saline with Tween-80 93 % of control

C[C@]12C=CC(=O)C=C1CC[C@@H]1[C@@H]2C(=O)C[C@@]2(C)[C@H]1CC[C@]2(O)C(=O)CO
inactive: dose: 12.5 mg/kg/injection, schedule: Q01DX009 (sc), vehicle: steriod suspending solution 102 % of control | dose: 25.0 mg/kg/injection, schedule: Q01DX009 (sc), vehicle: steriod suspending solution 102 % of control | dose: 50.0 mg/kg/injection, schedule: Q01DX009 (sc), vehicle: steriod suspending solution 89 % of control and 102 % of control and 110 % of control | dose: 50.0 mg/kg/injection, schedule: Q01DX017 (sc), vehicle: steriod suspending solution 104 % of control | dose: 50.0 mg/kg/injection, schedule: Q## X009 (sc), vehicle: steriod suspending solution 102 % of control | dose: 100.0 mg/kg/injection, schedule: Q01DX001 (sc), vehicle: steriod suspending solution 100 % of control | dose: 100.0 mg/kg/injection, schedule: Q01DX009 (sc), vehicle: steriod suspending solution 109 % of control | dose: 100.0 mg/kg/injection, schedule: Q01DX017 (sc), vehicle: steriod suspending solution 97 % of control | dose: 100.0 mg/kg/injection, schedule: Q04DX003 (sc), vehicle: steriod suspending solution 109 % of control | dose: 100.0 mg/kg/injection, schedule: Q04DX005 (sc), vehicle: steriod suspending solution 97 % of control | dose: 100.0 mg/kg/injection, schedule: Q## X009 (sc), vehicle: steriod suspending solution 118 % of control | dose: 200.0 mg/kg/injection, schedule: Q01DX001 (sc), vehicle: steriod suspending solution 95 % of control | dose: 200.0 mg/kg/injection, schedule: Q01DX009 (sc), vehicle: steriod suspending solution 123 % of control | dose: 200.0 mg/kg/injection, schedule: Q04DX003 (sc), vehicle: steriod suspending solution 104 % of control | dose: 200.0 mg/kg/injection, schedule: Q04DX005 (sc), vehicle: steriod suspending solution 106 % of control | dose: 200.0 mg/kg/injection, schedule: Q## X009 (sc), vehicle: steriod suspending solution 106 % of control | dose: 400.0 mg/kg/injection, schedule: Q01DX001 (sc), vehicle: steriod suspending solution 95 % of control | dose: 400.0 mg/kg/injection, schedule: Q04DX003 (sc), vehicle: steriod suspending solution 106 % of control | dose: 400.0 mg/kg/injection, schedule: Q04DX005 (sc), vehicle: steriod suspending solution 109 % of control | dose: 400.0 mg/kg/injection, schedule: Q## X009 (sc), vehicle: steriod suspending solution 106 % of control | dose: 800.0 mg/kg/injection, schedule: Q01DX001 (sc), vehicle: steriod suspending solution 93 % of control

C/C=C(\CC)C(=O)NC(N)=O
inactive: dose: 12.5 mg/kg/injection, schedule: Q04DX003 (ip), vehicle: Klucel (hydroxypropylcellulose) (HPC) 93 % of control | dose: 25.0 mg/kg/injection, schedule: Q04DX003 (ip), vehicle: Klucel (hydroxypropylcellulose) (HPC) 100 % of control | dose: 50.0 mg/kg/injection, schedule: Q04DX003 (ip), vehicle: Klucel (hydroxypropylcellulose) (HPC) 93 % of control | [6] 95 % of control

CCCCCCCCCCCCCCCCCN
inactive: dose: 6.25 mg/kg/injection, schedule: Q01DX009 (ip), vehicle: Klucel (hydroxypropylcellulose) (HPC) 103 % of control | dose: 12.5 mg/kg/injection, schedule: Q01DX009 (ip), vehicle: Klucel (hydroxypropylcellulose) (HPC) 100 % of control | [3] 93 % of control

Cc1ccc(S(=O)(=O)N2CCC(O)(c3ccccc3)CC2)cc1
inactive: [8] 87 % of control | [5] 95 % of control | [6] 91 % of control | dose: 400.0 mg/kg/injection, schedule: Q01DX009 (ip), vehicle: Klucel (hydroxypropylcellulose) (HPC) 119 % of control | [7] 97 % of control
